This is an account of results in PubChem BioAssay AID179 (DTP/NCI, 2004).

This assay concerns CEM cells HIV-1 protection, formazan growth assay. The assay is described as follows: NCI AIDS Antiviral Assay. Conditions: for IC50: measured here: growth of uninfected CEM cells. In outline:
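CEM (human) cells, HIV-1 infected vs uninfected, 5-point dosing, formazan growth read-out. Retest threshold 50% protection.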

Active and inactive are the calls of the source.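 The calls were made as follows: active = compounds giving half or more protection of infected cells from virus-caused growth loss, again on retest; inactive = the rest.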

For orientation: EC50 means the midpoint of the concentration-response curve. In general, IC50 refers to the concentration that inhibits the measured activity by half. A high value points to a need for much substance. Regarding `CC(C)C(Sc1nc(-c2ccccc2)c(-c2ccccc2)[nH]1)c1n[nH]c(=S)n1-c1ccccc1` (stereo not drawn), the EC50 is over 14.8 µM and the IC50 turned out to be 7.08 µM.

Regarding `CC(C)c1cccc(C(C)C)c1NC(=O)C(=O)CC(=O)CC(c1ccccc1)c1c(O)c2ccccc2oc1=O` (stereo not drawn), the EC50 was over 468 µM and the half-maximal inhibitory concentration (IC50) was 229 µM.

As to `O=P1(Oc2ccccc2)OC[C@H]2S[C@H](c3ccccc3)C[C@H]2O1` (stereo partly drawn), the EC50 is over 200 µM and the half-inhibitory concentration (IC50) is over 200 µM.

With `Oc1ccc2cc(SSc3ccc4cc(O)ccc4c3)ccc2c1`, the EC50 was over 200 µM and the IC50 came out at 8.13 µM.

In the case of `O=C(NCCO)c1c(O)c2ccccc2[nH]c1=O`, the EC50 is over 200 µM and the IC50 was over 200 µM.

With `CCC(C)C(NC(=O)C(CCCCN)NC(=O)CNC(=O)C(NC(=O)C(NC(=O)C(NC(=O)C(Cc1ccccc1)NC(=O)C(C)NC(=O)C(CCCNC(=N)N)NC(=O)CNC(=O)C1CCCN1C(=O)CNC(=O)C(CCCNC(=N)N)NC(=O)C(CCC(N)=O)NC(=O)C(NC(=O)C(CCCNC(=N)N)NC(=O)C(NC(=O)C(CO)NC(=O)C(CCCCN)NC(=O)C(CCCNC(=N)N)NC(=O)C(NC(=O)C(CC(N)=O)NC(=O)C(N)CC(=O)NC1OC(CO)C(O)C(O)C1NC(C)=O)C(C)O)C(C)CC)C(C)CC)C(C)C)C(C)O)C(C)CC)C(=O)NCC(N)=O` (stereo not drawn), the EC50 was over 50.1 µM and the IC50 is over 50.1 µM.

Turning to `CC(=O)Nc1ccc(S(=O)(=O)Nc2ccc(S(=O)(=O)c3ccc(-n4sc5ccccc5c4=O)cc3)cc2)cc1`, the EC50 is 16.6 µM and the IC50 amounted to 102 µM.

For `O=C1/C(=C/c2ccc(O)cc2)NC(=S)N1CN1CCCCC1`, the EC50 is over 200 µM and the IC50 came out at 32.4 µM.

Consider `CCOC(=O)C(NC(=O)CC(C)C)(Nc1ccc(C(F)(F)F)cc1)C(F)(F)F` (stereo not drawn), for which the EC50 was over 200 µM and the IC50 came to 56.2 µM.

As to `COc1ccc(C(C2=C(O)COC2=O)c2cc3c(cc2O)OCO3)cc1OC` (stereo not drawn), the EC50 was over 200 µM and the IC50 was found to be 132 µM.

As to `CCN(CC)C(=S)N/N=C(/c1ccccc1)c1ccccn1`, the EC50 was over 200 µM and the IC50 worked out at 1.51 µM.

As to `COc1ccccc1/C=c1\[nH]c(=O)/c(=C/c2ccccc2OC)[nH]c1=O`, the EC50 is over 28.2 µM and the IC50 is over 28.2 µM.

With `C1Cn2nnnc2N1`, the EC50 was over 2240 µM and the IC50 was over 2240 µM.

`CC(=O)Oc1ccc2cc(Oc3ccc(Cl)cc3)c(=O)oc2c1`: the EC50 is over 200 µM and the 50% inhibitory concentration (IC50) came to 83.2 µM.

On to `O=c1scc(-c2ccc(C(F)(F)F)cc2)s1`, for which the EC50 was over 85.1 µM and the IC50 is over 85.1 µM.

With `CC1(Cl)CCC2(CC1Br)C(C)(C)C(Br)=CC1OC12C` (stereo not drawn), the EC50 was over 200 µM and the concentration for half-maximal inhibition (IC50) turned out to be 33.9 µM.

Turning to `Cc1ccc(C(=O)O/N=C2/CCC/C2=C\c2ccccc2)cc1`, the result was inactive.

Turning to `Cc1ccc(S(=O)(=O)NC(=O)NCCSSCCNC(=O)NS(=O)(=O)c2ccc(C)cc2)cc1`, the EC50 was over 200 µM and the IC50 was over 200 µM.

On to `CC1=C(C)CC2(CCCCC2=O)S(=O)C1` (stereo not drawn), for which the EC50 was over 1100 µM and the IC50 worked out at 851 µM.

With `CC1(C)/C(=C/N=O)N(O)C(C)(C)N1O`, the EC50 is over 200 µM and the IC50 was determined as 120 µM.

For the compound `Clc1ncc(Cl)c(Cl)n1`, the result was inactive.

As to `[Cu+2].[O-]/C(=N\N=C/c1cccc(C(F)(F)F)c1)c1ccncc1.[O-]/C(=N\N=C\c1cccc(C(F)(F)F)c1)c1ccncc1`, the EC50 is over 100 µM and the IC50 was 5.62 µM.

As for `COc1cc(OC)c(NC2=NCCO2)cc1Cl`, the EC50 is over 200 µM and the IC50 amounted to 13.5 µM.

For `COc1cc2c(cc1OC)C1Cc3ccccc3CCN1CC2` (stereo not drawn), the EC50 was over 200 µM and the IC50 came out at 126 µM.

Turning to `NS(=O)(=O)c1ccc(NC(=O)/C=C\C(=O)O)cc1`, the EC50 is over 200 µM and the IC50 is over 200 µM.

For the compound `CN1CC(c2ccccc2)N(CCCCN2CC(c3ccccc3)N(C)CC2c2ccccc2)CC1c1ccccc1` (stereo not drawn), the EC50 was over 100 µM and the IC50 was 58.9 µM.

Regarding `COC(=O)[C@@]12C(=O)C(C)C(=O)[C@]1(C)C(C)=C[C@H]1[C@]3(C=O)CC[C@H](OC(C)=O)C(C)(C)[C@H]3CC[C@@]12C` (stereo partly drawn), the EC50 is over 200 µM and the IC50 was determined as 97.7 µM.

Consider `CC(=O)OC(OC(C)=O)c1ncccc1C(=O)OC(C)C`, for which the EC50 is over 851 µM and the half-inhibitory concentration (IC50) stood at 112 µM.

Regarding `CCOC(=O)c1ccc(CS(=O)c2ccc(N)cc2)c([N+](=O)[O-])c1` (stereo not drawn), the EC50 was over 102 µM and the IC50 is 26.9 µM.

Turning to `Cc1ccc(S(=O)(=O)Nc2cccc3c(=O)[nH]cnc23)cc1`, the EC50 is over 83.2 µM and the IC50 was 13.8 µM.

`O=CNNC(=O)Nc1cccc2ccccc12`: the EC50 is over 200 µM and the IC50 is over 200 µM.

For the compound `O=[N+]([O-])c1ccc(C=NC23CC4CC(CC(C4)C2)C3)cc1`, the outcome was inactive.

For `COC(=O)c1cccc(COC(=O)c2cc(C(=CCC[C@H]3CC[C@@]4(C)[C@@H](CC[C@@H]5[C@@H]4CC[C@]4(C)[C@@H]([C@H](C)CCCC(C)C)CC[C@@H]54)C3)c3cc(Cl)c(OCc4cccc(C(=O)OC)c4)c(C(=O)OCc4cccc(C(=O)OC)c4)c3)cc(Cl)c2OCc2cccc(C(=O)OC)c2)c1`, the EC50 was over 200 µM and the IC50 was over 200 µM.

For `CC(CCCC1SCC2NC(=O)NC21)C(=O)O` (stereo not drawn), the EC50 is over 977 µM and the IC50 was over 977 µM.

Turning to `Cc1ccc(C(=O)/C=C/c2ccc(Cl)c(Cl)c2)cc1`, the EC50 is over 17.8 µM and the IC50 is over 17.8 µM.

Turning to `CN(Cc1cnc2nc(N)nc(N)c2n1)c1ccc(C(=O)N[C@@H](CCC(=O)O)C(=O)O)cc1`, the EC50 is over 1.51 µM and the IC50 was found to be 0.00372 µM.

On to `COC(=O)C(=O)C(C(=O)C(=O)Nc1cccc(C(C)=O)c1)c1nc2ccc([N+](=O)[O-])cc2[nH]c1=O` (stereo not drawn), for which the EC50 was over 64.6 µM and the IC50 was over 64.6 µM.

For `O=S(=O)(Oc1ccccn1)c1ccc(Br)cc1`, the EC50 is over 200 µM and the IC50 is over 200 µM.

`COc1cccc2c1OCC1Cc3ccccc3OC21` (stereo not drawn): the result was inactive.

Regarding `OC1=CN=C(C2CC2)Oc2ccccc21`, the EC50 was over 178 µM and the IC50 was found to be 117 µM.

Take `COS(=O)CCOC(=O)c1ccccc1SSc1ccccc1C(=O)OCCS(=O)OC` (stereo not drawn): the EC50 is 112 µM and the IC50 was over 200 µM.

`NC(=O)CNC(=O)c1ccc([As](=O)(O)O)cc1`: the EC50 was over 200 µM and the IC50 was over 200 µM.

Take `Cc1ccn2c(=O)cc(CN3CCOCC3)nc2c1`: the EC50 is over 200 µM and the IC50 is over 200 µM.

As for `OC1(c2ccc(Cl)cc2)c2ccccc2C2=Nc3ccccc3CN21` (stereo not drawn), the EC50 is over 200 µM and the IC50 turned out to be 115 µM.

For the compound `C=CCN1C2Cc3cc(OC)c(OC)cc3C1Cc1cc(OC)c(OC)cc12`, the EC50 is over 603 µM and the IC50 is 135 µM.

For the compound `COc1cc(/C=C/C(=O)CC(=O)/C=C/c2cc(OC)c(O)c(OC)c2)cc(OC)c1O`, the EC50 is over 200 µM and the IC50 stood at 12.6 µM.

As for `O=c1c2ccccc2oc2cc([N+](=O)[O-])cc([N+](=O)[O-])c12`, the EC50 is over 5.01 µM and the IC50 worked out at 4.17 µM.

`C[C@H]1CN[C@@H]2[C@@H](C)[C@H]3[C@@H](C[C@H]4[C@@H]5CC[C@H]6C[C@@H](N)CC[C@]6(C)[C@H]5CC[C@]34C)O[C@@]2(O)C1`: the EC50 was over 38 µM and the 50% inhibitory concentration (IC50) is 1.74 µM.

Consider `C=C(C)C(=O)OC1C[C@H](COC(C)=O)C2CC=C(CO)C2C2OC(=O)C(=C)[C@H]12` (stereo partly drawn), for which the EC50 was over 200 µM and the IC50 turned out to be 9.12 µM.

As for `COc1cc2c(=O)cnoc2cc1O`, the EC50 was over 200 µM and the IC50 was 26.3 µM.

As to `O=S1(=O)Cc2nc3ccccc3n2C1c1c(F)cccc1F` (stereo not drawn), the EC50 was 29.5 µM and the half-maximal inhibitory concentration (IC50) was found to be 75.9 µM.

On to `CCCC[C@H]1C(=O)O[C@H](C)[C@H](NC(=O)c2cccc(NC=O)c2O)C(=O)O[C@@H](C)[C@@H]1OC(=O)CC(C)C`, for which the EC50 was over 1 µM and the IC50 was 0.0389 µM.

Take `O=C(O)C1=Cc2cccc3cccc(c23)C1=O`: the result was inactive.

On to `CC(=O)NC1=C(C)C(=O)c2c(nc3n2CCC3O)C1=N` (stereo not drawn), for which the EC50 was over 200 µM and the IC50 stood at 24 µM.

In the case of `O=C1CCC2=C(CCCC2=O)N1`, the EC50 is over 200 µM and the IC50 is over 200 µM.

Turning to `Cc1ccc(C)c2c1C(=O)N(c1ccccc1)C2=O`, the EC50 is over 200 µM and the concentration for half-maximal inhibition (IC50) was over 200 µM.

Consider `Cc1ccc(-c2n[nH]c(CC#N)n2)cc1`, for which the EC50 was over 200 µM and the IC50 was over 200 µM.

Take `CC(=O)OI1NC(=O)c2ccccc21`: the EC50 was 36.3 µM and the IC50 was 126 µM.

On to `CC12NC(=C(C#N)C#N)C(C#N)=C3NC(N)=C(C#N)C(=C31)Oc1ccccc12` (stereo not drawn), for which the EC50 is over 200 µM and the half-maximal inhibitory concentration (IC50) is 5.89 µM.

Regarding `CCOC(=O)C(Cc1cc(OC)c(CC(C(=O)OCC)C(=O)OCC)cc1OC)C(=O)OCC`, the result was inactive.

With `O=C(c1ccccc1F)c1c(NCc2ccccc2)c(=O)c1=O`, the EC50 was 53.7 µM and the IC50 was found to be 102 µM.

Regarding `C=C(CN(C)C)C1(c2ccccc2)CC2(CCCC2)C(=O)O1` (stereo not drawn), the EC50 was over 200 µM and the IC50 is 38 µM.

Take `CCN(CC)CCNc1ccc([N+](=O)[O-])c2nc3ccc(OC)cc3c(N)c12`: the EC50 is over 200 µM and the IC50 amounted to 0.331 µM.

Consider `COc1ccc(OC)c(NC(=O)CCC/C(CC(=O)c2ccc(O)c(OC)c2)=N\Nc2nnc(C)n2N)c1`, for which the EC50 is over 7.24 µM and the IC50 was over 7.24 µM.

On to `O=C1CCCC2=C1CC1=C(CCCC1=O)N2c1ccc(-c2ccccc2)cc1`, for which the result was inactive.

Regarding `O=c1[nH]nc(Cc2ccccc2)n1CCCl`, the EC50 was over 200 µM and the IC50 was over 200 µM.

For `CCOP(=O)(OCC)C1CCCCOC1=O` (stereo not drawn), the result was inactive.

Consider `CCN(CC)c1ccc(N=Nc2ccc(-c3nc4cccn(C)c-4n3)cc2)cc1`, for which the EC50 was over 7.41 µM and the IC50 was over 7.41 µM.
